# Measurements published in ChEMBL document CHEMBL2040781, “Design, synthesis, and biological evaluation of chromone-based p38 MAP kinase inhibitors” (J Med Chem, 2011).
# Calls of active or inactive are those of the source. The rule behind the calls is not given here.
# Tests used:
# [1] = target: Glycogen synthase kinase-3 beta (Homo sapiens) (UniProt P49841); assay: Inhibition of human GSK3beta assessed as remaining activity at 0.8 uM after 40 mins by scintillation counting
# [2] = target: Platelet-derived growth factor receptor beta (Homo sapiens) (UniProt P09619); assay: Inhibition of human PDGFRbeta assessed as remaining activity at 0.8 uM after 40 mins by scintillation counting
# Chain of Platelet-derived growth factor receptor beta (Homo sapiens) (P09619 whole entry): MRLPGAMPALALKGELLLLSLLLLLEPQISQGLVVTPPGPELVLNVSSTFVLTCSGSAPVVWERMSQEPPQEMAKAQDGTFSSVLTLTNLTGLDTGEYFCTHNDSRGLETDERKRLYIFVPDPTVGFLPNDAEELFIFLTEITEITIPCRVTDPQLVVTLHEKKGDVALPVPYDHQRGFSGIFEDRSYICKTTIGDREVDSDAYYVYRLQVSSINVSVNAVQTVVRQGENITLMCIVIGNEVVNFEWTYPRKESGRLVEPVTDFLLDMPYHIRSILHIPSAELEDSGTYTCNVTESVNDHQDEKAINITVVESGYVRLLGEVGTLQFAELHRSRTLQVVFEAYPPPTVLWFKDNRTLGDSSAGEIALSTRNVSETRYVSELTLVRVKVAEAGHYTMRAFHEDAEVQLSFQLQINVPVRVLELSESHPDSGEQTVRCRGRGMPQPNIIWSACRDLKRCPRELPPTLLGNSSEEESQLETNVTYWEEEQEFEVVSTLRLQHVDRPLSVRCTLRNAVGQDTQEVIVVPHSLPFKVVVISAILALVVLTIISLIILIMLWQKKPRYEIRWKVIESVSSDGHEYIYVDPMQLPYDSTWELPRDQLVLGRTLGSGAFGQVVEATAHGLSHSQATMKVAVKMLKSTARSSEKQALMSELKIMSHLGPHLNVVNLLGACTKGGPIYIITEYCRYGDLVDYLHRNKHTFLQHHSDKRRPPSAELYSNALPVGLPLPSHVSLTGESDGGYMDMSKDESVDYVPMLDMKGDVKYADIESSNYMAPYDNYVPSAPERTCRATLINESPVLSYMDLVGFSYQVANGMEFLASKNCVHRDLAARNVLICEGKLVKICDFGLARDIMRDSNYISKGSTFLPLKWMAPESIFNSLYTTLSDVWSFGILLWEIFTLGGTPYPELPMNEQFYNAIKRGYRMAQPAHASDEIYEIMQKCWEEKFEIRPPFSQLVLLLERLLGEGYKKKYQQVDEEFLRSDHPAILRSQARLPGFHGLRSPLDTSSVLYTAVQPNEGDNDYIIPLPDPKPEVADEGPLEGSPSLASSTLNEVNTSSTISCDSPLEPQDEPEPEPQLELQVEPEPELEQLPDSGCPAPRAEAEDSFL
# [3] = target: Serine/threonine-protein kinase pim-1 (Homo sapiens) (UniProt P11309); assay: Inhibition of human Pim-1 assessed as remaining activity at 0.8 uM after 40 mins by scintillation counting
# Chain of Serine/threonine-protein kinase pim-1 (Homo sapiens) (P11309 whole entry, looked up): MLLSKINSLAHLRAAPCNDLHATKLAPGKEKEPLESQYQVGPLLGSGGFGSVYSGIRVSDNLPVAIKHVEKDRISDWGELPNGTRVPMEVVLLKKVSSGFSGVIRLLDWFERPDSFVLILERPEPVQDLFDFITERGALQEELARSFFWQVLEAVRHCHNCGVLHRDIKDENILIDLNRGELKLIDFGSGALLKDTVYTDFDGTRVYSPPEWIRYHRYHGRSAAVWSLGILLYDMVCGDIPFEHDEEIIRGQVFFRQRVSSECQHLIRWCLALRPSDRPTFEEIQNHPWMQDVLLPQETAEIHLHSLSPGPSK
# [4] = target: 5'-AMP-activated protein kinase catalytic subunit alpha-1 (Homo sapiens) (UniProt Q13131); assay: Inhibition of human AMPKalpha1 assessed as remaining activity at 0.8 uM after 40 mins by scintillation counting
# [5] = target: Epidermal growth factor receptor (Homo sapiens) (UniProt P00533); assay: Inhibition of human EGFR assessed as remaining activity at 0.8 uM after 40 mins by scintillation counting
# [6] = target: Tyrosine-protein kinase Fyn (Homo sapiens) (UniProt P06241); assay: Inhibition of human Fyn assessed as remaining activity at 0.8 uM after 40 mins by scintillation counting
# Chain of Tyrosine-protein kinase Fyn (Homo sapiens) (P06241 2-537 limits assumed): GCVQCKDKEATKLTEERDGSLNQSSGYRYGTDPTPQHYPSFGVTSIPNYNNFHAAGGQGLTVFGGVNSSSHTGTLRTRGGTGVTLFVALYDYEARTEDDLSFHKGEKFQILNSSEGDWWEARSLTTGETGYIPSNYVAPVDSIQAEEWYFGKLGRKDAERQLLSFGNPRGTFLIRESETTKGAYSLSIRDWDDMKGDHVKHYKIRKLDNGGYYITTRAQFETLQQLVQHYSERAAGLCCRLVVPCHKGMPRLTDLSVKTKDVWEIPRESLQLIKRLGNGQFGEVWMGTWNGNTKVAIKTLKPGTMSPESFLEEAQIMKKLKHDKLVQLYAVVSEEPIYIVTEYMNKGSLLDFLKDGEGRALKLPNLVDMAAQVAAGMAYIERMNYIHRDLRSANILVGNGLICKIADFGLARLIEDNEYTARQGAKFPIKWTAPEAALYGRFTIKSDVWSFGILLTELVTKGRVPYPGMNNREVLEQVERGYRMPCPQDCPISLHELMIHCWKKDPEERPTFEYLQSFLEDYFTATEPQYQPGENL
# [7] = target: MAP kinase-interacting serine/threonine-protein kinase 2 (Homo sapiens) (UniProt Q9HBH9); assay: Inhibition of human Mnk2 assessed as remaining activity at 0.8 uM after 40 mins by scintillation counting
# Homo sapiens [8] = species on record: Homo sapiens; assay: Inhibition of human PKA assessed as remaining activity at 0.8 uM after 40 mins by scintillation counting
# [9] = target: Vascular endothelial growth factor receptor 2 (Homo sapiens) (UniProt P35968); assay: Inhibition of human KDR assessed as remaining activity at 0.8 uM after 40 mins by scintillation counting
# MCF7 [10] = assay: Potentiation of anisomycin-mediated cytotoxicity in human MCF7 cells at 1 uM after 4 hrs by prestoblue cell viability assay; assay type: functional, cell-based
# MCF7 [11] = assay: Antiproliferative activity against human MCF7 cells at 1 uM after 4 hrs by prestoblue cell viability assay; assay type: functional, cell-based
# [12] = target: Cyclin-dependent kinase 1/cyclin B1 (Homo sapiens) (UniProt P06493+P14635); assay: Inhibition of human CDK1/cyclinB assessed as remaining activity at 0.8 uM after 40 mins by scintillation counting; assay type: protein-complex assay
# [13] = target: Serine/threonine-protein kinase PAK 2 (Homo sapiens) (UniProt Q13177); assay: Inhibition of human PAK2 assessed as remaining activity at 0.8 uM after 40 mins by scintillation counting
# [14] = target: CDK9/cyclin T1 (Homo sapiens) (UniProt O60563+P50750); assay: Inhibition of human CDK9/cyclin T1 assessed as remaining activity at 0.8 uM after 40 mins by scintillation counting; assay type: protein-complex assay
# [15] = target: Insulin-like growth factor 1 receptor (Homo sapiens) (UniProt P08069); assay: Inhibition of human IGF-1R assessed as remaining activity at 0.8 uM after 40 mins by scintillation counting
# Chain of Insulin-like growth factor 1 receptor (Homo sapiens) (P08069 31-736 limits assumed): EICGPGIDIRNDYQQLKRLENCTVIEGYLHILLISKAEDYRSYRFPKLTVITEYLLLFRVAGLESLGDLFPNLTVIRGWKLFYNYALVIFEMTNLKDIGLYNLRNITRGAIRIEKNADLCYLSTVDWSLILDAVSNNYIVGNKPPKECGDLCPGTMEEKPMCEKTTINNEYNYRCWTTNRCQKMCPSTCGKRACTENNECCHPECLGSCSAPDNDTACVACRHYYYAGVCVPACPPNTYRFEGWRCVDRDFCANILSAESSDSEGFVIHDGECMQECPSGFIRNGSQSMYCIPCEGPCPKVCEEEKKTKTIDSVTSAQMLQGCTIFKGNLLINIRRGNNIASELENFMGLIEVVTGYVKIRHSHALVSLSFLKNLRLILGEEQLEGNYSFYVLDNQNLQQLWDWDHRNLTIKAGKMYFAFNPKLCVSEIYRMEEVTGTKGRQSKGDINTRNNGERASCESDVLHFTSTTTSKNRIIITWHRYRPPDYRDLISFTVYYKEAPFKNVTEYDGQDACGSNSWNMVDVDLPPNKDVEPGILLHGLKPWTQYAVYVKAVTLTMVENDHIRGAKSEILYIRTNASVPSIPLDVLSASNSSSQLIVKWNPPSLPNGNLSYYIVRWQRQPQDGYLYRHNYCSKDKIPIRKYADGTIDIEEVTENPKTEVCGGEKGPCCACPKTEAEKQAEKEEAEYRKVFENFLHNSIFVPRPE
# Chain of Insulin-like growth factor 1 receptor (Homo sapiens) (P08069 741-1367 limits assumed): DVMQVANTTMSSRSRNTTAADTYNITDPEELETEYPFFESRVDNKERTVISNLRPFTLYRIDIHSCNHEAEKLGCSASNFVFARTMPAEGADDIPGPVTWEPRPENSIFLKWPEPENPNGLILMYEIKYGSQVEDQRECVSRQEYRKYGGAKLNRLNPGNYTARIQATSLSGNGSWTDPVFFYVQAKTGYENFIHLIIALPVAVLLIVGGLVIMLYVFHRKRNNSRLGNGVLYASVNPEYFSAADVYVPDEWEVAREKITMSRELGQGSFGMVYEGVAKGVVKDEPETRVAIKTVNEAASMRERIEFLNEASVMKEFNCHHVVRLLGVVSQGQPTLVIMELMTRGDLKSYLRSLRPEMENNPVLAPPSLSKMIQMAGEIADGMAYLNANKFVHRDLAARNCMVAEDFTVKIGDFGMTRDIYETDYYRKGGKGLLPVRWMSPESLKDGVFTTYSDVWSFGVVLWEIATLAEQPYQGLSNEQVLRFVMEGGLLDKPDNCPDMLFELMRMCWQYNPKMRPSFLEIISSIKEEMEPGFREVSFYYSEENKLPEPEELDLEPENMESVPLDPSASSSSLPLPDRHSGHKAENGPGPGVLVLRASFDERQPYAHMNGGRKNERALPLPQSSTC
# [16] = target: Mitogen-activated protein kinase 8 (Homo sapiens) (UniProt P45983); assay: Inhibition of human JNK1alpha1 assessed as remaining activity at 0.8 uM after 40 mins by scintillation counting
# [17] = target: CDK6/cyclin D3 (Homo sapiens) (UniProt P30281+Q00534); assay: Inhibition of human CDK6/cyclinD3 assessed as remaining activity at 0.8 uM after 40 mins by scintillation counting; assay type: protein-complex assay
# [18] = target: Aurora kinase A (Homo sapiens) (UniProt O14965); assay: Inhibition of human Aurora-A assessed as remaining activity at 0.8 uM after 40 mins by scintillation counting
# Chain of Aurora kinase A (Homo sapiens) (O14965 whole entry): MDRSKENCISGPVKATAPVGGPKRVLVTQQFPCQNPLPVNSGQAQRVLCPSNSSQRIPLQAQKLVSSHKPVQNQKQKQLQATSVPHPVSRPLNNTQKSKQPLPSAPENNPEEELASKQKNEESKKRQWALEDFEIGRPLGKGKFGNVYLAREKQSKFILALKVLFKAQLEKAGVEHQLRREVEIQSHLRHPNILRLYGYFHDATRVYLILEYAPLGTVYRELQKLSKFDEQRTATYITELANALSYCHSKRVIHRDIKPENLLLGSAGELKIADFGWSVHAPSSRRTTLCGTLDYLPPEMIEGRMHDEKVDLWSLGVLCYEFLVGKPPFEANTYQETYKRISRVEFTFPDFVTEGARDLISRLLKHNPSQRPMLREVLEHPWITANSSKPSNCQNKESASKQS
# MDA-MB-436 [19] = assay: Potentiation of doxorubicin-mediated cytotoxicity in p53-deficient human MDA-MB-436 cells at 1 uM after 4 hrs by prestoblue cell viability assay; assay type: functional, cell-based
# [20] = target: Mitogen-activated protein kinase kinase kinase 5 (Homo sapiens) (UniProt Q99683); assay: Inhibition of human ASK1 assessed as remaining activity at 0.8 uM after 40 mins by scintillation counting
# MCF7 [21] = assay: Potentiation of doxorubicin-mediated cytotoxicity in human MCF7 cells at 1 uM after 4 hrs by prestoblue cell viability assay; assay type: functional, cell-based
# MDA-MB-436 [22] = assay: Antiproliferative activity against human MDA-MB-436 cells at 1 uM after 4 hrs by prestoblue cell viability assay; assay type: functional, cell-based
# [23] = target: Serine/threonine-protein kinase 17A (Homo sapiens) (UniProt Q9UEE5); assay: Inhibition of human DRAK1 assessed as remaining activity at 0.8 uM after 40 mins by scintillation counting
# [24] = target: Calcium/calmodulin-dependent protein kinase type 1 (Homo sapiens) (UniProt Q14012); assay: Inhibition of human CaMKI assessed as remaining activity at 0.8 uM after 40 mins by scintillation counting
# Chain of Calcium/calmodulin-dependent protein kinase type 1 (Homo sapiens) (Q14012 whole entry, looked up): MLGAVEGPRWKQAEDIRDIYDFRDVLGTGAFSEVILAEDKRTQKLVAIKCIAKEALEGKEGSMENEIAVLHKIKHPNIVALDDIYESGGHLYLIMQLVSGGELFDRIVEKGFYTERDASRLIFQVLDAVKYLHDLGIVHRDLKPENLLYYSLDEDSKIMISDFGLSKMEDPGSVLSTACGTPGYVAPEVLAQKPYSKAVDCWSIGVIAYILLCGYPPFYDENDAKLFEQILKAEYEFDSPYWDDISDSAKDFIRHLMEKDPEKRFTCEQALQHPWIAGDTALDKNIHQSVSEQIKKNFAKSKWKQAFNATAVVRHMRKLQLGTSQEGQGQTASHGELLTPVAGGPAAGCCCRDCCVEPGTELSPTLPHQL
# [25] = target: Mitogen-activated protein kinase kinase kinase 9 (Homo sapiens) (UniProt P80192); assay: Inhibition of human MLK1 assessed as remaining activity at 0.8 uM after 40 mins by scintillation counting
# [26] = target: Dual specificity mitogen-activated protein kinase kinase 7 (Homo sapiens) (UniProt O14733); assay: Inhibition of human MKK7beta assessed as remaining activity at 0.8 uM after 40 mins by scintillation counting
# [27] = target: Mitogen-activated protein kinase 1 (Homo sapiens) (UniProt P28482); assay: Inhibition of human MAPK1 assessed as remaining activity at 0.8 uM after 40 mins by scintillation counting
# [28] = target: RAC-alpha serine/threonine-protein kinase (Homo sapiens) (UniProt P31749); assay: Inhibition of human PKBalpha assessed as remaining activity at 0.8 uM after 40 mins by scintillation counting
# [29] = target: Protein kinase C alpha type (Homo sapiens) (UniProt P17252); assay: Inhibition of human PKCalpha assessed as remaining activity at 0.8 uM after 40 mins by scintillation counting
# [30] = target: Cyclin-dependent kinase 2/cyclin A (Homo sapiens) (UniProt P24941+P20248+P78396); assay: Inhibition of human CDK2/cyclinA assessed as remaining activity at 0.8 uM after 40 mins by scintillation counting; assay type: protein-complex assay
# [31] = target: Serine/threonine-protein kinase 4 (Homo sapiens) (UniProt Q13043); assay: Inhibition of human MST1 assessed as remaining activity at 0.8 uM after 40 mins by scintillation counting
# [32] = target: Mitogen-activated protein kinase 10 (Homo sapiens) (UniProt P53779); assay: Inhibition of human JNK3 assessed as remaining activity at 0.8 uM after 40 mins by scintillation counting
# [33] = target: Ribosomal protein S6 kinase beta-1 (Homo sapiens) (UniProt P23443); assay: Inhibition of human p70S6K assessed as remaining activity at 0.8 uM after 40 mins by scintillation counting
# [34] = target: Mitogen-activated protein kinase 12 (Homo sapiens) (UniProt P53778); assay: Inhibition of human SAPK3 assessed as remaining activity at 0.8 uM after 40 mins by scintillation counting
# Chain of Mitogen-activated protein kinase 12 (Homo sapiens) (P53778 whole entry): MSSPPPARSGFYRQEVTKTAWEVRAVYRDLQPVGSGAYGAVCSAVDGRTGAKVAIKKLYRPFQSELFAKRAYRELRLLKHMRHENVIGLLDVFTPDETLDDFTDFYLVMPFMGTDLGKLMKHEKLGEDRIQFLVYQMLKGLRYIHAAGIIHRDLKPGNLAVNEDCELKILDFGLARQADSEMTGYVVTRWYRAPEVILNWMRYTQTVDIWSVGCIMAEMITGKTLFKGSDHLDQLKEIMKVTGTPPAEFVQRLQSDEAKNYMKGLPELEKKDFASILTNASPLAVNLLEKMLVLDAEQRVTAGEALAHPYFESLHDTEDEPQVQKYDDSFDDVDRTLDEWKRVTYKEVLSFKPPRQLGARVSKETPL
# Homo sapiens [35] = species on record: Homo sapiens; assay: Inhibition of human PI3K assessed as remaining activity at 0.8 uM after 40 mins by scintillation counting
# [36] = target: Tyrosine-protein kinase ABL1 (Homo sapiens) (UniProt P00519); assay: Inhibition of human Abl assessed as remaining activity at 0.8 uM after 40 mins by scintillation counting
# Chain of Glycogen synthase kinase-3 beta (Homo sapiens) (P49841 whole entry, looked up): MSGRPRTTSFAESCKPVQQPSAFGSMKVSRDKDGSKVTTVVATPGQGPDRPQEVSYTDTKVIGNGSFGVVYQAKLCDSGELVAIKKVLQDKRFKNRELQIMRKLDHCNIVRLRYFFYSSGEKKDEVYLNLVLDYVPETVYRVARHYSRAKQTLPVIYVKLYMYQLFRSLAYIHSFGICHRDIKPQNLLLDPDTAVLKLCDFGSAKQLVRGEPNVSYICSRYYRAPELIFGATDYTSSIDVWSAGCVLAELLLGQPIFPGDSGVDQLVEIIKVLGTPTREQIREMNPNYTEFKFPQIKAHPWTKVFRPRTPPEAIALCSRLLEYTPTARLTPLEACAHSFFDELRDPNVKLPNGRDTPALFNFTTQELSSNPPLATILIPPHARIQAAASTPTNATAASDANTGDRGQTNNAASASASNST
Structure (SMILES),Activity [1] [%],Activity [2] [%],Activity [3] [%],Activity [4] [%],Activity [5] [%],Activity [6] [%],Activity [7] [%],Activity (Homo sapiens [8]) [%],Activity [9] [%],Activity (MCF7 [10]),Activity (MCF7 [11]),Activity [12] [%],Activity [13] [%],Activity [14] [%],Activity [15] [%],Activity [16] [%],Activity [17] [%],Activity [18] [%],Activity (MDA-MB-436 [19]),Activity [20] [%],other results
O=c1c(-c2ccc(F)cc2)c(-c2ccnc(NC3CCCCC3)c2)oc2ccccc12,124,105,97,102,114,103,103,118,101,inactive,inactive,93,104,93,100,96,99,107,inactive,102,Activity (MCF7 [21]): inactive; Activity (MDA-MB-436 [22]): inactive; Activity [23]: 111%; Activity [24]: 96%; Activity [25]: 101%; Activity [26]: 99%; Activity [27]: 87%; Activity [28]: 107%; Activity [29]: 102%; Activity [30]: 101%; Activity [31]: 93%; Activity [32]: 24%; Activity [33]: 102%; Activity [34]: 97%; Activity (Homo sapiens [35]): 100%; Activity [36]: 106%
CC(C)Nc1cc(-c2oc3ccccc3c(=O)c2-c2ccc(F)cc2)ccn1,132,107,100,97,106,100,96,114,98,inactive,inactive,95,106,96,94,84,100,104,inactive,105,Activity (MCF7 [21]): inactive; Activity (MDA-MB-436 [22]): inactive; Activity [23]: 107%; Activity [24]: 94%; Activity [25]: 95%; Activity [26]: 120%; Activity [27]: 82%; Activity [28]: 100%; Activity [29]: 96%; Activity [30]: 95%; Activity [31]: 99%; Activity [32]: 21%; Activity [33]: 102%; Activity [34]: 96%; Activity (Homo sapiens [35]): 100%; Activity [36]: 111%
